The source of these data is patent publication US5232913A, “Antihepatopathic composition” (Senju Pharmaceutical Co., Ltd., priority 1990, dated 1993).

Like-named read-outs stand apart in the source and are kept apart here.

The inhibition is the share of the control response that was lost under treatment.

The assay relates to acetaminophen-induced hepatic impairment. The assay can be described thus: Effect on acetaminophen-induced hepatic impairment. It counts as in vivo, rat. Conditions: Male SD rats; for inhibitory effect on acetaminophen-induced hepatic impairment (antihepatopathic effect, in words) / inhibition at 500 µmol/kg / s-GOT % inhibition / s-GPT % inhibition: 0.5 mmole/kg orally; for inhibitory effect on acetaminophen-induced hepatic impairment (antihepatopathic effect, in words): acetaminophen 300 mg/kg i.p.; for s-GOT / s-GPT: test substance 0.5 mmole/kg orally, one hour later acetaminophen 300 mg/kg i.p., mean ± S.E., n = 7-10; for s-GOT / s-GPT / inhibition at 500 µmol/kg / s-GOT % inhibition / s-GPT % inhibition: serum after 24 hours; for inhibition at 500 µmol/kg: Rattus norvegicus; for inhibition at 500 µmol/kg / s-GOT % inhibition / s-GPT % inhibition: one hour before acetaminophen 300 mg/kg i.p., versus physiological saline control. How it is done: Method; Male SD rats (body weights ca. 180 g) purchased form Japan SLC were used. The test substance was orally administered (0.5 mmole/kg) and one hour later 300 mg/kg of acetaminophen was intraperitoneally administered. After 24 hours, blood was drawn from the abdominal aorta and the serum was separated. Using this serum, s-GOT and GPT were determined.

As for `CC(C)OC(=O)CC(C)SC[C@H](NC(=O)CC[C@H](N)C(=O)O)C(=O)NCC(=O)O` (stereo partly drawn) [compound 9, S-(1-Methyl-2-carboisopropoxyethyl)glutathione], the “inhibitory effect on acetaminophen-induced hepatic impairment (antihepatopathic effect, in words)” value (“inhibitory effect” below) is reported as “significant antihepatopathic effects”; the s-GOT is 171 ± 71 IU/l; the s-GPT is listed as 43 ± 21 IU/l. Moreover, under “read-out: s-GOT % inhibition”, the inhibition at 500 µmol/kg was 96.8%. Besides, under “read-out: s-GPT % inhibition”, the inhibition at 500 µmol/kg was 97.9%.

As for `CCOC(=O)CCSC[C@H](NC(=O)CC[C@H](N)C(=O)O)C(=O)NCC(=O)O` [compound 4, S-(2-Carbethoxyethyl)glutathione], the “inhibitory effect” value was “significant antihepatopathic effects”; the s-GOT came out at 1935 ± 530 IU/l; the s-GPT amounted to 598 ± 226 IU/l. Besides, the inhibition at 500 µmol/kg (read-out: s-GOT % inhibition) amounted to 63.3%. Also, the inhibition at 500 µmol/kg (read-out: s-GPT % inhibition) came out at 71%.

As for `CCOC(=O)C(C)CSCC(NC(=O)CCC(N)C(=O)O)C(=O)NCC(=O)OC(C)C` (stereo not drawn) [compound 7, S-(2-Methyl-2-carbethoxyethyl)glutathione isopropyl ester], the s-GOT % inhibition is listed as 70.2%; the s-GPT % inhibition is given as 74.3%; the “inhibitory effect” value is given as “significant antihepatopathic effects”; the s-GOT was 1570 ± 511 IU/l. The same compound gave a s-GPT of 529 ± 168 IU/l.

With `CC(C)COC(=O)C(C)CSCC(NC(=O)CCC(N)C(=O)O)C(=O)NCC(=O)OC(C)C` (stereo not drawn) [compound 8, S-(2-Methyl-2-carbiosobutoxyethyl)glutathione isopropyl ester], the s-GOT % inhibition stood at 96.9%; the s-GPT % inhibition is listed as 97.5%; the “inhibitory effect” value is “significant antihepatopathic effects”; the s-GOT stood at 163 ± 89 IU/l. The same compound gave a s-GPT of 52 ± 29 IU/l.

With `CCOC(=O)C(C)CSC[C@H](NC(=O)CC[C@H](N)C(=O)O)C(=O)NCC(=O)O` (stereo partly drawn) [compound 2, S-(2-carbethoxypropyl)glutathione], the “inhibitory effect” value is given as “significant antihepatopathic effects”; the s-GOT came to 841 ± 354 IU/l; the s-GPT was 195 ± 81 IU/l. The inhibition at 500 µmol/kg (read-out: s-GOT % inhibition) amounted to 84%. In addition, the inhibition at 500 µmol/kg (read-out: s-GPT % inhibition) came to 90.5%.

`CC(CSC[C@H](NC(=O)CC[C@H](N)C(=O)O)C(=O)NCC(=O)O)C(=O)OCc1ccccc1` (stereo partly drawn) [compound 6, S-[2-Methyl-2-carbobenzoxyethyl]glutathione] had a s-GOT of 2968 ± 824 IU/l and a s-GPT of 1384 ± 421 IU/l. Besides, the inhibition at 500 µmol/kg (read-out: s-GOT % inhibition) was 43.7%. Under “read-out: s-GPT % inhibition”, the inhibition at 500 µmol/kg was 32.8%.

`CC(CSC[C@H](NC(=O)CC[C@H](N)C(=O)O)C(=O)NCC(=O)O)C(=O)O` (stereo partly drawn) [compound 1, S-(2-carboxypropyl)glutathione]: the “inhibitory effect” value is listed as “significant antihepatopathic effects”; the s-GOT amounted to 1259 ± 424 IU/l; the s-GPT is recorded as 337 ± 117 IU/l. Moreover, the inhibition at 500 µmol/kg (read-out: s-GOT % inhibition) amounted to 76.1%. Moreover, for the setting “read-out: s-GPT % inhibition”, the inhibition at 500 µmol/kg came out at 83.6%.

Compound `CC(C)COC(=O)C(C)CSC[C@H](NC(=O)CC[C@H](N)C(=O)O)C(=O)NCC(=O)O` (stereo partly drawn) [compound 5, S-(2-Methyl-2-carboisobutoxyethyl)glutathione] registered a s-GOT % inhibition of 43.6%, a s-GPT % inhibition of 32.8%, a s-GOT of 2972 ± 803 IU/l and a s-GPT of 1384 ± 417 IU/l.

As for `N[C@@H](CCC(=O)N[C@@H](CSCCC(=O)O)C(=O)NCC(=O)O)C(=O)O` [compound 3, S-(2-Carboxyethyl)glutathione], the “inhibitory effect” value is on record as “significant antihepatopathic effects”; the s-GOT worked out at 1968 ± 626 IU/l; the s-GPT was 530 ± 180 IU/l. For the same compound, for the setting “read-out: s-GOT % inhibition”, the inhibition at 500 µmol/kg stood at 62.6%. Also, the inhibition at 500 µmol/kg (read-out: s-GPT % inhibition) is 74.3%.
